Laboratory results published in PubChem BioAssay AID700 (NMMLSC, 2007).
Activity calls are given as the source filed them. How the calls were made is not given here.

Test system: bacterial quorum sensing reporter inhibition
Experiment: blockers of quorum-sensing reporter signal in bacteria – dose response (AID 700)

| SMILES | IC50 |
| --- | --- |
| CCc1ccc2[nH]c(=O)c(CN(CCCN3CCOCC3)C(=O)Nc3cccc(Cl)c3)cc2c1 | > 20 µM (inactive) |
| CCOc1ccc(NC(=O)C2CCCN(S(=O)(=O)c3c(C)nn(C)c3C)C2)cc1 (configuration not stated) | > 20 µM (inactive) |
| CC1CCCCN1S(=O)(=O)c1ccc(C(=O)Nc2nnc(-c3cccs3)o2)cc1 (configuration not stated) | > 20 µM (inactive) |
| CCN1CCCC1CN(Cc1cc2c(C)cc(C)cc2[nH]c1=O)C(=O)NC1CCCCC1 (configuration not stated) | > 20 µM (inactive) |
| COC(=O)C1C(=O)C2=C(CC1C)NC(C)=C(C(=O)OC1CCCCC1)C2c1ccc(N(C)C)cc1 (configuration not stated) | 9.7 µM |
| c1csc(CCNc2ncnc3sc4c(c23)CCC4)c1 | > 20 µM (inactive) |
| COc1ccc(-c2oc3ncn(CCN4CCOCC4)c(=N)c3c2-c2ccc(OC)cc2)cc1 | > 20 µM (inactive) |
| CC1CN(c2nc3ccccc3nc2C(C#N)C(=O)OC2CCCCC2)CC(C)O1 (configuration not stated) | > 20 µM (inactive) |
| COc1ccc(OC)c2[nH]c(=O)c(CCNC(=O)C(C)C)cc12 | > 20 µM (inactive) |
| Cc1ccc(C)c2[nH]c(=O)c(CN(CCN3CCCC3)C(=O)Nc3ccc(F)cc3)cc12 | > 20 µM (inactive) |
| Cn1cccc1Cc1nnc(SCC(=O)Nc2ccccc2)n1-c1ccc(F)cc1 | > 20 µM (inactive) |
| COc1ccc(-c2cnc(SCC(=O)Nc3ccc4c(c3)OCO4)n2Cc2ccco2)cc1 | 16.3 µM (inactive) |
| CC[C@H]1OC(=O)C[C@@H](O)[C@H](C)[C@@H](O[C@@H]2O[C@H](C)C[C@H](N(C)C)[C@H]2O)[C@@H](CC=O)C[C@@H](C)C(=O)C=C[C@]2(C)O[C@H]2[C@@H]1C | 1.14 µM |
| COc1ccc(-c2nc(C(N)=O)c3[nH]c(=O)n(-c4cccc(Cl)c4)c3n2)cc1OC | > 20 µM (inactive) |
| Cn1c(=O)n(CCc2ccccc2)c(=O)c2c1nc1n2CCN1Cc1ccco1 | > 20 µM (inactive) |
| Cc1nn(C(C)(C)C)c(OC(=O)C2CCCC2)c1S(=O)(=O)c1ccccc1 | > 20 µM (inactive) |
| Oc1ccc(-c2nc3ncccn3c2Nc2ccc3c(c2)OCCO3)cc1 | > 20 µM (inactive) |
| CCOC(=O)Cn1c(=O)oc2cc(S(=O)(=O)Nc3ccc(N(CC)CC)cc3C)ccc21 | > 20 µM (inactive) |
| Cc1ccc(N2CC(C(=O)NC3=NCCS3)CC2=O)cc1 (configuration not stated) | > 20 µM (inactive) |
| Cc1cccc2sc(NC(=O)CN(C)S(=O)(=O)c3ccc(Br)s3)nc12 | > 20 µM (inactive) |
| Cc1ccc(C)c2[nH]c(=O)c(CN(CCN3CCCC3)C(=O)Nc3cccc(Cl)c3)cc12 | 8.19 µM |
| CC(C)CC(NC(=O)c1ccco1)C(=O)Nc1ccc2c(c1)OCCO2 (configuration not stated) | > 20 µM (inactive) |
| Cc1cc(C)c2cc(CN(CCN3CCCC3)C(=O)Nc3ccc(F)cc3)c(=O)[nH]c2c1 | > 20 µM (inactive) |
| CC1CCN(S(=O)(=O)c2ccc3c(c2)oc(=O)n3CC(=O)NCc2ccc3c(c2)OCO3)CC1 | > 20 µM (inactive) |
| COc1ccc(N(CC(=O)Nc2nc3ccc(C)cc3s2)S(=O)(=O)c2c(C)nn(C)c2C)cc1 | > 20 µM (inactive) |
| Cc1ccc(NC(=O)c2cc(C)on2)cc1 | > 20 µM (inactive) |
| CC1(C)S[C@@H]2[C@H](NC(=O)[C@H](N)c3ccccc3)C(=O)N2[C@H]1C(=O)O | > 20 µM (inactive) |
| COc1ccc(NC(=O)c2c(SC)nsc2SC)cc1 | > 20 µM (inactive) |
| Clc1ccc(OCc2nnc3n2N=C(c2ccc4c(c2)OCCO4)CS3)c(Cl)c1 | > 20 µM (inactive) |

Second part, the compound after the results:

| IC50 | SMILES |
| --- | --- |
| > 20 µM (inactive) | Cn1c(=O)oc2cc(S(=O)(=O)NCCN3CCN(c4ccccc4F)CC3)ccc21 |
| > 20 µM (inactive) | CCCCC(=O)Nc1cc(C)c2c(=O)oc3ccccc3c2n1 |
| > 20 µM (inactive) | Cc1ccc2cc(CN(CCN3CCCC3)C(=O)Nc3ccccc3)c(=O)[nH]c2c1C |
| > 20 µM (inactive) | Cc1ccc(C)c(N2CCN(C(=O)CCCCn3c(=O)[nH]c4ccccc4c3=O)CC2)c1 |
| > 20 µM (inactive) | Cc1cc(NC(=O)CC(C)(C)C)nc2c1c(=O)oc1ccccc12 |
| 1.46 µM | CCc1ccc(S(=O)(=O)c2n[nH]n3c2nc(=O)c2ccccc23)cc1 |
| 5.8 µM | CCOC(=O)N1CCC(NC(=O)Cn2nc(Cc3ccncc3)c3ccccc3c2=O)CC1 |
| > 20 µM (inactive) | COc1ccc(O)c(C(=O)CC(=O)c2ccc(F)cc2)c1 |
| > 20 µM (inactive) | O=C(CCCCn1c(=O)[nH]c2ccccc2c1=O)N1CCN(c2cccc(C(F)(F)F)c2)CC1 |
| 3.13 µM | Cc1ccc(Cl)c(Nc2ccccc2C(=O)O)c1Cl |
| 1.42 µM | O=C1CS/C(=N\C(=O)N2c3ccccc3Sc3ccccc32)N1 |
| > 20 µM (inactive) | O=C(NCCCc1ccccc1)c1cnc2n(c1=O)CCS2 |
| 0.74 µM | CCc1oc2ccccc2c1C(=O)c1cc(Br)c(O)c(Br)c1 |
| 1.02 µM | Cc1cccc(Nc2ccccc2C(=O)O)c1C |
| 1.89 µM | Cc1c(Cl)cccc1Nc1ccccc1C(=O)O |
| > 20 µM (inactive) | Nc1c(C(O)(C(F)(F)F)C(F)(F)F)ccc2ccccc12 |
| > 20 µM (inactive) | COc1cccc(-c2cc(C(F)(F)F)nc(NCc3ccco3)n2)c1 |
| > 20 µM (inactive) | O=C(CN1C(=O)CC(c2ccco2)Sc2ccccc21)Nc1ccc2c(c1)OCCO2 (configuration not stated) |
